Experiments:
PKA = assay: CREB phosphorylation as readout of PKA activity; type: cell-based
Excerpt: The emerging issue is therefore how Lindane could activate CFTR Cl^- currents. One possibility would be that Lindane directly activates CFTR, but this appears unlikely because it required minutes instead of seconds to increase Cl^- conductance. […] To further explore this hypothesis, we tested the effect of Lindane on the renal proximal cell line (PCT1). […] Of particular interest, we provide several lines of evidence that the CFTR Δex10 channels remained functional in response to Lindane in PCT cells. […] These finding provide the first evidence that an agonist, e.g. Lindane, could activate CFTR Cl- current independently of PKA, raising the promise for new strategies using Lindane to restore Cl-conductance in cystic fibrosis patients with CFTR variants on PKA sites.

renal cells = assay: Lindane-induced autophagic vacuolation of renal cells (electron microscopy); type: cell-based, mouse
Experimental: To address the importance of CFTR in autophagy, renal cells derived from distal tubules or the proximal convoluted tubules of Wild type (WT or CFTR^+/+) or CFTR deficient (CFTR^-/-) mice (40) were isolated and immortalized with the pSV3 neo vector, as described below (55).
The ultrastructural changes caused by Lindane or starvation in Sertoli and renal cells were analysed by transmission electron microscopy, as previously described (57). Briefly, control and Lindane-treated cells (50 µM, 24 h) were scraped from the culture dish in PBS EDTA 1mM, pelleted and fixed with ice-cold 2.5% glutaraldehyde (TAAB, #G004) in 0.1 M Na cacodylate, pH 7.4 for at least 1 h at 4°C. Cell pellets were then rinsed in cacodylate buffer, postfixed in 1% OsO4 for 1 h at 4°C, dehydrated through graded ethanol washes, and embedded in epoxy resin. Oriented […] sections were obtained with diamond knives, and representative areas were chosen for ultra-thin sectioning. Thin […] sections were mounted on copper mesh grids, stained with uranyl acetate and lead citrate, and examined on a JEOL 1200 EXII electron microscope. 30-50 micrographs were taken randomly from each sample at primary magnification × 10,000.

p38 = details: Lindane-treated cells; ref (38); cited from earlier work
CFTR Cl^- channel = CFTR Cl^- channel (Mus musculus, UniProt P26361); assay: Whole-cell patch-clamp Cl- currents in Sertoli cells; type: cell-based; set-up: endogenous in cells; host or cells: Sertoli 42GPA9 cell line (mouse)
Experimental: Whole cell currents were monitored from Sertoli cells, CFTR^-/- and WT renal epithelial cells with an RK 400 amplifier (Biologic, Münster, Germany) as previously described (40). The bath (extracellular) solution consisted of 140 mM NMDGCl (N-methyl-D-glucamine chloride), 5 mM D-Glucose, 1 mM CaCl2, and 10 mM HEPES, pH 7.4. Patch pipette (intracellular) solution contained 140 mM NMDGCl, 5 mM D-Glucose, 5 mM EGTA, 5 mM MgATP, and 10 mM HEPES, pH 7.4. Osmolarity of both solutions was adjusted to 280 mOSM by adding mannitol. These solutions were designed to study Cl^- currents because Cl^- is the sole permeant ion in these conditions and to prevent Ca^2+ activated Cl^- currents by the addition of EGTA in the patch solution. After establishment of whole cell configuration, cells were stimulated by the addition of Lindane (50 µM), FSK (10 µM), vehicle (Me2S0 or ethanol) in the absence or the presence of NPPB (0.1mM), DIDS (4,4'-diisothiocyanatostilbene-2,2'-disulfonic acid, 1 mM, Sigma), glibenclamide (0.1mM, Sigma) or PD98059 (10 µM) in the bath solution. The cell membrane potential was clamped at -50mV and 400 ms pulses were applied from -100 to +120 mV with increments of 20 mV every 2 s. To generate whole cell current-voltage (I-V) relationship, membrane currents resulting from voltage stimuli were recorded for at least 3 min and analysed using an IBM-AT-compatible computer equipped with Digidata 1200 interface (Axon Instruments) and pCLAMP software (versions 5.51 and 6.0, Axon Instruments), respectively. Statistics-Results are expressed as mean ± S.E. of n observations using the Student's t test.

Chain of CFTR Cl^- channel (P26361 whole entry): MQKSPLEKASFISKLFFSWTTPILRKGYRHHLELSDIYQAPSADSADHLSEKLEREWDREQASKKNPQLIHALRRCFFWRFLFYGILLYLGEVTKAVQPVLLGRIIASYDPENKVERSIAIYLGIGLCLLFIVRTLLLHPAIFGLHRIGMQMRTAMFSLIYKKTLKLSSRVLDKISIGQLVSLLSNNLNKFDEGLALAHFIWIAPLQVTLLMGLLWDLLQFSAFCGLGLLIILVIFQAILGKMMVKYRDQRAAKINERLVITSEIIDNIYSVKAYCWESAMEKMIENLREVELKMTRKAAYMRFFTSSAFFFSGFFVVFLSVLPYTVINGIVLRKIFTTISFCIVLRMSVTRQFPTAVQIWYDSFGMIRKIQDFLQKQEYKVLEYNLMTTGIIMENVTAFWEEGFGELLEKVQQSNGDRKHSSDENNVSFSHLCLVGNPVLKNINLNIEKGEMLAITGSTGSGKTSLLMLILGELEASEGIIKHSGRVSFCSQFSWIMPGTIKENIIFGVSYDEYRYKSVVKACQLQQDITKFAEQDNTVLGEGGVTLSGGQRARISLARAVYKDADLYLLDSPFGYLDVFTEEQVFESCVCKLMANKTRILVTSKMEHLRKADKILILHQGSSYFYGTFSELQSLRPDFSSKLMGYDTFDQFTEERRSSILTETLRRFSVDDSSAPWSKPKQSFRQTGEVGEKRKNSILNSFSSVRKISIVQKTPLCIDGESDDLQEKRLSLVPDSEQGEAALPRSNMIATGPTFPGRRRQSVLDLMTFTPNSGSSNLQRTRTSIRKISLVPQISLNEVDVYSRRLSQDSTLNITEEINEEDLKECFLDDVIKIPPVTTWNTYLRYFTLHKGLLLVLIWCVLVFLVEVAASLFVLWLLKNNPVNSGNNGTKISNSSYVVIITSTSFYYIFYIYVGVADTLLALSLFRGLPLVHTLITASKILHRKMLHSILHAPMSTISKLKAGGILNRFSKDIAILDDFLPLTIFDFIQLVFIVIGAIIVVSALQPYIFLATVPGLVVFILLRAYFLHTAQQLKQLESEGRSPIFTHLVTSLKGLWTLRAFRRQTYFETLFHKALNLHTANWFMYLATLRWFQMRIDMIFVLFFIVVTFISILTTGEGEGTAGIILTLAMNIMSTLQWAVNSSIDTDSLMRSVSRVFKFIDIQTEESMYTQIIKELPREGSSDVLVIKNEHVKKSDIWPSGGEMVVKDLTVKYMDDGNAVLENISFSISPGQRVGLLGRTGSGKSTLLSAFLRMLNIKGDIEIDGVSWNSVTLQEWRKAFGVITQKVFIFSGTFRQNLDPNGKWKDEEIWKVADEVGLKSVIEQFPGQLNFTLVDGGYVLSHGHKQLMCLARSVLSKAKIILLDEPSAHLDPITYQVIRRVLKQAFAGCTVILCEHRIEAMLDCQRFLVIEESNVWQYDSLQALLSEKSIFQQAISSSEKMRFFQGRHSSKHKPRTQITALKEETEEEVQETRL

Cl[C@H]1[C@H](Cl)[C@@H](Cl)[C@@H](Cl)[C@H](Cl)[C@H]1Cl [Lindane, γ-hexachlorocyclohexane]
CREB phosphorylation (PKA; Lindane treatment): dramatic phosphorylation of CREB
PKA activation (PKA; concluded from H89 experiment): did not activate PKA
autophagic vacuolation in CFTR-expressing renal cells (renal cells; CFTR^+/+ renal cells): could be generalized to renal cells, provided CFTR was expressed
response in renal cells lacking CFTR expression (renal cells; CFTR^-/- renal cells): dramatic accumulation of lamellar structures and little if any large autophagic vacuoles
activation of Jun kinases or p38 (p38): not activated
anion selectivity sequence of induced currents (CFTR Cl^- channel): Br^-≥ Cl^->>I^-
Cl^- conductance across plasma membrane (CFTR Cl^- channel; Lindane 50 µM): increased within minutes
reversal potential of induced currents (CFTR Cl^- channel; symmetrical Cl- solutions): ~ 0 mV
